Data published in patent publication US11807693B2 (priority 2014, dated 2023).
Read-outs that look alike come from different tables or passages of the source. Starred links: 1 amine or outer side, 2 acyl side, 3 side chain; linkers in the order of their positions; H or OH if unused. Positions of bridges follow the written chain, without caps; N, C: chain ends. Non-standard residues stand in square brackets, D forms with d. Residues, ends and D or L forms follow the SMILES beside them. *: point of attachment. dBip = N[C@H](Cc1ccc(-c2ccccc2)cc1)C(=O)O; Oic = O=C(O)[C@@H]1C[C@@H]2CCCC[C@@H]2N1; Phe(4-Cl) = N[C@@H](Cc1ccc(Cl)cc1)C(=O)O; dPhe(4-Cl) = N[C@H](Cc1ccc(Cl)cc1)C(=O)O; Phe(4-I) = N[C@@H](Cc1ccc(I)cc1)C(=O)O; γGlu = O=C(O)[C@H](CCC(=O)[*:2])N[*:1]; NMeR = CN[C@@H](CCCNC(=N)N)C(=O)O; Tridecanoyl = CCCCCCCCCCCCC(=O)*; hArg = N=C(N)NCCCC[C@H](N)C(=O)O; β3hF = N[C@H](CC(=O)O)Cc1ccccc1; Cha = N[C@@H](CC1CCCCC1)C(=O)O; NMeL = CN[C@@H](CC(C)C)C(=O)O; Nle = CCCC[C@H](N)C(=O)O; AEEA = NCCOCCOCC(=O)O; Aib = CC(C)(N)C(=O)O; Mpa = O=C(O)CCS

Columns and labels:
[1] = system: Rat Peritoneal Mast Cells
[2] = In vitro stability in rat kidney homogenate; type: in vitro ADME; settings: for remaining at 4 h, 5 μM: rat, tissue homogenate
Outline: (§1)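 Peptide remaining was followed by high-resolution LC-MS of methanol-quenched, centrifuged samples with internal standard. Incubations were at 37° C. over 4 hr, peptides at 5 μM final in rat plasma or in rat liver or kidney homogenate.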

rat APJ receptor = molecular target: T1, rat APJ receptor (Rattus norvegicus, UniProt Q9JHG3); experiment: [35S] GTPγS assay, rat APJ receptor; type: biochemical
T1 construct: expressed in transfected cells
T1 sequence (Q9JHG3 1-377): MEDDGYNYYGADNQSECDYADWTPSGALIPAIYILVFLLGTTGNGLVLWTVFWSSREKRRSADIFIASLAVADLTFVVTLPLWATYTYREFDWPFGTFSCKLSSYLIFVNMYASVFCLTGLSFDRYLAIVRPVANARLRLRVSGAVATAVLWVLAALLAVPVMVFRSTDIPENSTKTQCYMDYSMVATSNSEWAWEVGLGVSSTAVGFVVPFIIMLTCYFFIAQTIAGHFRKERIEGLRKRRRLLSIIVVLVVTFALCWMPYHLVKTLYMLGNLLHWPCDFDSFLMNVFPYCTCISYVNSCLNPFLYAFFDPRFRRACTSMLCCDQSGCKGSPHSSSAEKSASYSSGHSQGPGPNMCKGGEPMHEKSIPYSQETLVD
Protocol: The membranes were incubated with modified peptides in the assay buffer. […] Bound [^35S] GTPγS was separated from free radiolabel by filtration. The filter bound radioactivity was determined by liquid scintillation counting.

Human Mast Cells = experiment: Mast cell degranulation (histamine release), human mast cells; type: cell-based; settings: human mast cells derived from CD34+ peripheral blood cells; 0.005 to 30 μM, 37° C., 30 min; less than 30% of total histamine content = negative
Protocol: Mast cell degranulation was measured for a number of the modified apelin polypeptides as follows in order to determine the potential immunogenic effect of the peptides. Mast cell degranulating peptide (MCDP) and compound 48/80 were used as positive controls. MCDP was obtained from Alomone Labs (Israel). Compound 48/80 was obtained from Sigma (Saint Louis, […].). Histamine Elisa kit was obtained from NEOGEN (Lexington, Ky.). Tyrode's buffer was obtained from Sigma (#T2397).
Mature human mast cells were derived from CD34+peripheral blood precursor cells after an 8-12 week differentiation/maturation process in vitro. […] Mast cell maturation was confirmed via expression of the mast cell markers c-kit and FcεRI via flow cytometry (>75% positive) and histamine release.
Mast cells (human or rat) were washed in Tyrode's buffer and seeded on 96-well plates (approx. 2000 mast cells/well). A 10 point dilution of test compounds were prepared in Tyrode's buffer and were incubated (0.005 to 30 μM) with mast cells at 37° C. for 30 min. […] A mast cell surfactant control is compared to a mast cell Tyrode's buffer control to ensure surfactants are not inducing histamine release in the absence of the lipidated molecule. Histamine release was quenched by placing the plates on ice for 5 min. Cells were centrifuged at 350×g at 4° C. for 5 min and the supernatant was collected. Released histamine was quantified by ELISA (Neogen Corporation) as per the kits' instruction. Briefly, the absorbance was measured at 650 nm in a microplate reader, following a direct competitive ELISA reaction with test samples compared against a standard curve. Total histamine content of the cells (0.1% Triton X-100) and spontaneous release were also measured to determine the percent of histamine release. Percent histamine release was calculated by the following formula: % histamine release=(ng/ml histamine release by test article−ng/ml spontaneous histamine release in Tyrode's buffer)/(ng/ml total histamine content of cells lysed in 0.1% Triton X-100−ng/ml spontaneous histamine release in Tyrode's buffer)×100.

[3] = In vitro stability in rat liver homogenate; type: in vitro ADME; settings: tissue homogenate
Outline: as §1

[4] = In vitro stability in rat plasma; type: in vitro ADME
Outline: as §1

[5] = In vivo pharmacokinetics in rat; parameters: species or system Sprague-Dawley rats; settings: rat, in vivo, sc, 0.5 mg/kg
Protocol: Evaluation of the in vivo pharmacokinetic profile of several pegylated and lipidated apelin polypeptides in rat was undertaken (FIGS. 9 and 10A-B). The apelin polypeptides were administered to Sprague-Dawley rats through subcutaneous (SC) administration and the pharmacokinetic profile for each polypeptide was subsequently evaluated. […] Blood samples collected over a 24 hr period were transferred into collection tubes containing potassium EDTA and stored on ice until processed. Plasma was obtained from blood by centrifugation. After transfer into a 96-well container, plasma samples were stored in a freezer maintained at approximately −80° C. Quantitative analysis of the apelin polypeptide in rat plasma samples was achieved using multiple reaction monitor (MRM) mode on a LC-MS/MS system.

liver homogenate = settings: rat, 37° C., up to 4 hr

## CC[C@H](C)[C@H](N)C(=O)N[C@@H](CCCCN)C(=O)N[C@H]1CSSC[C@@H]2NC(=O)[C@H]([C@@H](C)CC)NC(=O)[C@H](Cc3c[nH]cn3)NC(=O)[C@@H]3CCCN3C(=O)[C@H](CCCCN)NC(=O)[C@H]([C@@H](C)CC)NC(=O)[C@H](C(C)C)NC(=O)[C@H](Cc3c[nH]cn3)NC(=O)[C@H](CCCNC(=N)N)NC(=O)[C@H](CCCCN)NC(=O)[C@H](CSSC[C@@H](C(=O)NCC(=O)N[C@@H](CCCCN)C(=O)N[C@@H](CC(N)=O)C(N)=O)NC(=O)[C@H]([C@@H](C)CC)NC(=O)[C@H](CCCCN)NC(=O)[C@H](CCCNC(=N)N)NC2=O)NC(=O)[C@H](CC(N)=O)NC1=O [MCDP, reference compound] (H-IKCNCKRHVIKPHICRKICGKN-NH2; disulfide 3-15, 5-19 (inferred); N-terminus and C-terminus assumed)
[1]
  Cause Histamine Release?: Yes
  EC50: 520 nM

## CCCC[C@H](NC(=O)[C@@H]1CCCN1C(=O)CNC(=O)[C@H](CCCCN)NC(=O)[C@H](Cc1c[nH]cn1)NC(=O)[C@H](CO)NC(=O)[C@H](CC(C)C)NC(=O)[C@H](CCCNC(=N)N)N(C)C(=O)[C@@H]1CCCN1C(=O)[C@H](CCCNC(=N)N)NC(=O)[C@H](CCC(N)=O)NC(=O)COCCOCCNC(=O)COCCOCCNC(=O)CC[C@H](NC(=O)CCC)C(=O)O)C(=O)N1CCC[C@H]1C(=O)N[C@@H](Cc1ccc(Cl)cc1)C(=O)O [SEQ ID NO: 491]
[1]
  induction of histamine release from rat mast cells: less mast cell degranulation activity

## CSCC[C@H](NC(=O)[C@@H]1CCCN1C(=O)CNC(=O)[C@H](CCCCN)NC(=O)[C@H](Cc1cnc[nH]1)NC(=O)[C@H](CO)NC(=O)[C@H](CC(C)C)NC(=O)[C@H](CCCNC(=N)N)NC(=O)[C@@H]1CCCN1C(=O)[C@H](CCCNC(=N)N)NC(=O)[C@@H]1CCC(=O)N1)C(=O)N1CCC[C@H]1C(=O)N[C@@H](Cc1ccccc1)C(=O)O [compound 6]
[2]; rat kidney homogenate, 5 μM peptide, 37° C., 4 hr
  Stability at 4 hours (% Remaining) Kidney: <1.0 % Remaining
[1]
  induction of histamine release from rat mast cells: inactive at the highest concentrations tested

## CC(=O)N[C@H](CCCNC(=N)N)C(=O)N[C@@H](CCC(N)=O)C(=O)N[C@@H](CCCNC(=N)N)C(=O)N1CCC[C@H]1C(=O)N[C@@H](CCCCNC(=N)N)C(=O)N(C)[C@@H](CC(C)C)C(=O)N[C@@H](CO)C(=O)N[C@@H](Cc1c[nH]cn1)C(=O)N[C@@H](CCCCN)C(=O)NCC(=O)N1[C@H](C(=O)N[C@@H](Cc2ccc(I)cc2)C(=O)N2CCC[C@H]2C(=O)N[C@H](Cc2ccc(-c3ccccc3)cc2)C(=O)O)C[C@@H]2CCCC[C@@H]21 [compound 52] (Ac-[dR]QRP[hArg][NMeL]SHKG[Oic][Phe(4-I)]P[dBip]-OH)
Rat APJ receptor; read-out: EC50 Rat APJ Receptor
  EC50: 1.14 nM
[1]
  EC50: 550 nM

## CCCC[C@H](NC(=O)[C@@H]1C[C@@H]2CCCC[C@@H]2N1C(=O)CNC(=O)[C@H](CCCCN)NC(=O)[C@H](Cc1c[nH]cn1)NC(=O)[C@H](CO)NC(=O)[C@H](CC1CCCCC1)NC(=O)[C@H](CCCNC(=N)N)N(C)C(=O)[C@@H]1CCCN1C(=O)[C@H](CCCCNC(=N)N)NC(=O)[C@@H](CCC(N)=O)NC(C)=O)C(=O)N1CCC[C@H]1C(=O)N[C@H](Cc1ccc(Cl)cc1)C(=O)O [compound 55] (Ac-[dQ][hArg]P[NMeR][Cha]SHKG[Oic][Nle]P[dPhe(4-Cl)]-OH)
[1]
  EC50: 8170 nM

## CCCC[C@H](NC(=O)[C@@H]1CCCN1C(=O)CNC(=O)[C@H](CCCCN)NC(=O)[C@H](Cc1c[nH]cn1)NC(=O)[C@H](CO)NC(=O)C(C)(CC(C)C)NC(=O)[C@H](CCCCNC(=N)N)NC(=O)C1(C)CCCN1C(=O)[C@H](CCCNC(=N)N)NC(=O)[C@H](CCC(N)=O)NC(C)=O)C(=O)N1CCC[C@H]1C(=O)N[C@@H](Cc1ccc(Cl)cc1)C(=O)O (stereo partly drawn) [compound 69]
Human Mast Cells
  Induce Histamine Release? Human Mast Cells: No

## CCCCCCCCCCCCC(=O)N[C@@H](CCC(=O)NCCOCCOCC(=O)NCCOCCOCC(=O)N[C@@H](CCC(N)=O)C(=O)N[C@@H](CCCNC(=N)N)C(=O)N1CCC[C@H]1C(=O)N(C)[C@@H](CCCNC(=N)N)C(=O)N[C@@H](CC(C)C)C(=O)N[C@@H](CO)C(=O)N[C@@H](Cc1c[nH]cn1)C(=O)N[C@@H](CCCCN)C(=O)NCC(=O)N1CCC[C@H]1C(=O)N[C@@H](CCCC)C(=O)N1CCC[C@H]1C(=O)N[C@@H](Cc1ccc(Cl)cc1)C(=O)O)C(=O)O [compound 287]
[3]
  remaining at 4 h, 5 μM: < 1%
[4]
  remaining at 4 h, 5 μM: 18%
Human Mast Cells
  Induce Histamine Release? Human Mast Cells: Yes

## CCCCCCCCCCCCC(=O)N[C@@H](CCC(=O)NCCOCCOCC(=O)NCCOCCOCC(=O)N[C@@H](CCC(N)=O)C(=O)N[C@@H](CCCNC(=N)N)C(=O)N1CCC[C@H]1C(=O)N(C)[C@@H](CCCNC(=N)N)C(=O)N[C@@H](CC1CCCCC1)C(=O)N[C@@H](CO)C(=O)N[C@@H](Cc1c[nH]cn1)C(=O)N[C@@H](CCCCN)C(=O)NCC(=O)N1[C@H](C(=O)N[C@@H](CCCC)C(=O)N2CCC[C@H]2C(=O)N[C@H](CC(=O)O)Cc2ccccc2)C[C@@H]2CCCC[C@@H]21)C(=O)O [compound 379] ({Tridecanoyl-γGlu-AEEA-AEEA}-QRP[NMeR][Cha]SHKG[Oic][Nle]P[β3hF]-OH)
[3]
  remaining at 4 h, 5 μM: 2%
Rat APJ receptor; Table 16, read-out: EC50 Rat APJ Receptor
  EC50: 8.37 nM
[2]
  remaining at 4 h, 5 μM: 1%
[5]
  AUC(0-inf): 0.052 µM·h
  half-life: 2.27 h
[4]
  remaining at 4 h, 5 μM: 92%

## CCCCCCCCCCCCC(=O)N[C@@H](CCC(=O)NCCOCCOCC(=O)NCCOCCOCC(=O)N[C@@H](CCC(N)=O)C(=O)N[C@@H](CCCNC(=N)N)C(=O)N1CCC[C@H]1C(=O)N(C)[C@@H](CCCNC(=N)N)C(=O)N[C@@H](CC1CCCCC1)C(=O)N[C@@H](CO)C(=O)N[C@@H](Cc1c[nH]cn1)C(=O)N[C@@H](CCCCN)C(=O)NCC(=O)N1[C@H](C(=O)N[C@@H](CCCC)C(=O)NC(C)(C)C(=O)N[C@@H](Cc2ccc(Cl)cc2)C(=O)O)C[C@@H]2CCCC[C@@H]21)C(=O)O [compound 382] ({Tridecanoyl-γGlu-AEEA-AEEA}-QRP[NMeR][Cha]SHKG[Oic][Nle][Aib][Phe(4-Cl)]-OH)
[3]
  remaining at 4 h, 5 μM: 6%
[2]
  remaining at 4 h, 5 μM: 2%
[5]
  AUC(0-inf): 0.0961 µM·h
  half-life: 4.1 h
[4]
  remaining at 4 h, 5 μM: 91%

## {Acetyl-NH} Q R P [NMeArg] [Cha] S H K G [Oic] [Nle] [Aib] [4-Cl—F] {COOH} (Ac-QRP[NMeR][Cha]SHKG[Oic][Nle][Aib][Phe(4-Cl)]-OH) [SEQ ID NO: 92]
[1]
  induction of histamine release from rat mast cells: positive

## {H2} [MerPr] (10K mPEG acetamide) Q [NMehArg] P [NMeArg] [aMeLeu] S H K G P [Nle] P [4-Cl-F] {COOH}
Liver homogenate
  not cleaved: >90.0 % remaining at 4 hours

## {H2} [MerPr] (10K mPEG acetamide) Q r P [hArg] [aMeLeu] S H K G P [Nle] P [4-Cl-F] {COOH}
Liver homogenate
  not cleaved: >90.0 % remaining at 4 hours

## {H2}[MerPr](10KmPEGacetamide)QRP[NMeArg][Cha]SHKG[Oic][Nle][Aib][4-Cl-F]{COOH} (10KmPEGacetamide-[Mpa]QRP[NMeR][Cha]SHKG[Oic][Nle][Aib][Phe(4-Cl)]-OH) [SEQ ID NO: 120]
[1]; rat mast cells
  induction of histamine release from rat mast cells: no longer induced histamine release
